This note sets out measurements from patent publication US8710085B2, “Pyrrolidine-1,2-dicarboxamide derivatives” (Novartis AG, priority 2008, dated 2014).

The nature of data set [1]: In vitro metabolic clearance, human liver microsomes (CYP MetCL-Hu). Format: in vitro ADME. Conditions: human liver microsomes 0.5 mg/mL, test article 1.0 μM, NADPH, 37° C.; read-out: CYP MetCL-Hu/CL(int). On the procedure: (§1) Final test article and protein concentrations, as well as incubation duration, are shown below (Table 1). Low test article concentrations were selected to comply with the assumption that reaction kinetics are evaluated at a concentration less than (or approximately equal to) Km. DMSO is known to have an inhibitory effect on CYP activity. Therefore, the concentration of DMSO in the incubation media has been restricted to 0.01% (v/v) so that interference to the metabolic process is minimized.
(§2) A typical experiment is performed in 96-well format with shaking incubation at 37° C. […] A 30 minutes negative control incubation (minus cofactor) is also performed to assess CYP-unrelated stability issues (eg, chemical instability, CYP-independent metabolism).
In general, TA's in 10 mM DMSO are diluted 1:1000 into 0.6% ACN (v/v) in DiH20 to 10 μM. […] For evaluation of UGT-mediated metabolism, the suspension may be first pretreated by 5 min incubation on ice with alamethicin (25 μg/mg of microsomal protein). TA (35 μL) is added to 140 μL of the microsomal suspensions for 175 μL enzymesubstrate mixture. […] The 30 min negative control incubation is processed by combining 25 μL of enzyme.substrate mixture with an equal volume of 50 mM KPi containing 4 mM MgCl2. Following a 30 minute incubation at 37° C., the mix is quenched by adding 50 μL of ACN containing the MS internal standard (2 μM alprenolol). The T=0 min time point is processed by combining 25 μL of enzyme.substrate mixture directly with 50 μL of ACN containing the MS internal standard (2 μM alprenolol). 25 μL of the cofactor solution is added (2 mM NADPH in 50 mM KPi plus 4 mM MgCl2; optionally including 2 mM UDPGA for CYP+UGT assays) to simulate the complete quenched reaction mixture.
(§3) The bulk reactions for the remaining time points are initiated by addition of 125 μL of cofactor solution (2 mM NADPH in 50 mM KPi plus 4 mM MgCl2) to the remaining 125 μL of enzyme.substrate mixture. […] All the samples are centrifuged at ˜3400×g at 4° C. for 10 min and the supernatants are analyzed by LC-MS/MS for quantitation of remaining TA. […]

The nature of data set [2]: In vitro metabolic clearance, rat liver microsomes (CYP MetCL-Ra). It counts as in vitro ADME. Conditions: rat liver microsomes 0.5 mg/mL, test article 1.0 μM, NADPH, 37° C.; read-out: CYP MetCL-Ra/CL(int). As for the experimental part:
as §1, §2
In general, TA's in 10 mM DMSO are diluted 1:1000 into 0.6% ACN (v/v) in DiH20 to 10 μM. […] For evaluation of UGT-mediated metabolism, the suspension may be first pretreated by 5 min incubation on ice with alamethicin (25 μg/mg of microsomal protein). […]
as §3

The target in data set [3] is T1, PI3Kα (Homo sapiens, UniProt P42336).
T1 construct: p110α(21-1068)-His; made in house; host or cells: baculovirus, Tn5 insect cells
The data set is described as follows: PI3K KinaseGlo assay, PI3Kα. Conditions: KinaseGlo; 10 nM enzyme, 1 μM ATP, 30 mins, room temperature; read-out: PI3Ka/IC50. Format: biochemical.

Data set [4] has as its target T2, PI3Kγ (Homo sapiens, UniProt P48736, Q459R).
T2 construct: p110γ(Δ143-[Met144-1102])-His; made in house; host or cells: Tn5 insect cells; construct from Roger Williams lab, MRC LMB
The data set is described as follows: PI3K KinaseGlo assay, PI3Kγ. Format: biochemical. Conditions: 150 nM enzyme, 1 μM ATP, 90 mins, room temperature, read-out: PI3Kg/IC50. On the procedure:
L-a-phosphatidylinositol (PI), provided as 10 mg/ml solution in methanol, was transferred into a glass tube and dried under nitrogen beam. It was then resuspended in 3% OctylGlucoside (OG) by vortexing and stored at 4° C. The KinaseGlo Luminescent Kinase Assay (Promega, Madison/WI, USA) is a homogeneous HTS method of measuring kinase activity by quantifying the amount of ATP remaining in solution following a kinase reaction.
5 μL of a mix of PI/OG with the PI3K subtype were added (Table 1). Kinase reactions were started by addition of 5 μl of ATP-mix containing in a final volume 10 μL 10 mM TRIS-HCl pH 7.5, 3 mM MgCl2, 50 mM NaCl, 0.05% CHAPS, 1 mM DTT and 1 μM ATP, and occurred at room temperature. […] The standard was used as a reference compound and included in all assay plates in the form of 16 dilution points in duplicate. […]
(§4) PI3Kα, PI3Kβ and PI3Kγ were purified in two chromatographic steps: immobilized metal affinity chromatography (IMAC) on a Ni sepharose resin (GE Healthcare) and gel filtration utilizing a Superdex 200 26/60 column (GE Healthcare). All buffers were chilled to 4° C. and lysis was performed chilled on ice. Column fractionation was performed at room temperature. All buffers used to purify PI3Kβ contained 0.05% Triton X100 in addition to what is described below.
(§5) The lysate was centrifuged at 45,000 g for 30 minutes, and the supernatant was loaded onto a pre-equilibrated IMAC column (3 mL resin/100 mL lysate). […] Protein was eluted with 20 mM Tris-Cl, pH 7.5, 0.5 M NaCl, 5% glycerol, 250 mM imidazole, 1 mM NaF, 0.1 μg/mL OAA, 5 mM BME, 1× Complete protease inhibitor cocktail—EDTA-free. Pertinent fractions were analyzed by SDS-PAGE and pooled accordingly. The protein was further purified by gel filtration on a Superdex 200 26/60 column equilibrated in 20 mM Tris-Cl, pH 7.5, 0.5 M NaCl, 5% glycerol, 1 mM NaF, 5 mM DTT, 1× Complete protease inhibitor cocktail—EDTA-free. Pertinent fractions were analyzed by SDS-PAGE and pooled accordingly. An equal volume of Dialysis Buffer (20 mM Tris-Cl, pH 7.5, 500 mM NaCl, 50% glycerol, 5 mM NaF, 5 mM DTT) was added to the pool and than dialyzed against Dialysis Buffer two changes (one change overnight). Protein was stored at −20° C.

Data set [5] concerns the target T3, PI3Kβ (Homo sapiens, UniProt P42338).
T3 construct: p110β(2-1070)-His; made in house; host or cells: baculovirus, Tn5 insect cells
The data set is described as follows: PI3K KinaseGlo assay, PI3Kβ. It counts as biochemical. Conditions: KinaseGlo; 25 nM enzyme, 1 μM ATP, 30 mins, room temperature; read-out: PI3Kb/IC50. On the procedure: PI3K KinaseGlo assay: […] of compound dilutions were dispensed onto black 384-well low volume Non Binding Styrene (NBS) plates (Costar Cat. No. NBS#3676). L-a-phosphatidylinositol (PI), provided as 10 mg/ml solution in methanol, was transferred into a glass tube and dried under nitrogen beam. It was then resuspended in 3% OctylGlucoside (OG) by vortexing and stored at 4° C. The KinaseGlo Luminescent Kinase Assay (Promega, Madison/WI, USA) is a homogeneous HTS method of measuring kinase activity by quantifying the amount of ATP remaining in solution following a kinase reaction.
5 μL of a mix of PI/OG with the PI3K subtype were added (Table 1). Kinase reactions were started by addition of 5 μl of ATP-mix containing in a final volume 10 μL 10 mM TRIS-HCl pH 7.5, 3 mM MgCl2, 50 mM NaCl, 0.05% CHAPS, 1 mM DTT and 1 μM ATP, and occurred at room temperature. […] The standard was used as a reference compound and included in all assay plates in the form of 16 dilution points in duplicate.
The PI3Kα, PI3Kβ and PI3Kδ constructs are fusion of p85α iSH2 domain and the respective p110 isoforms. The p85α fragment and p110 isoform genes were generated by PCR from first strand cDNA generated by RT-PCR from commercial RNA from placenta, testis and brain as described below. The PI3Kγ construct was obtained from Roger Williams lab, MRC Laboratory of Molecular Biology, Cambridge, UK (November, 2003) and is described (Pacold, Michael E.; Suire, Sabine; Perisic, Olga; Lara-Gonzalez, Samuel; Davis, Colin T.; Walker, Edward H.; Hawkins, Phillip T.; Stephens, Len; Eccleston, John F.; Williams, Roger L. Crystal structure and functional analysis of Ras binding to its effector phosphoinositide 3-kinase gamma. Cell (2000), 103(6), 931-943).
BV949: PCR products for the inter SH2 domain (iSH2) of the p85 PI3Kα, PI13Kβ and PI3Kδ subunit and for the full-length p110β subunit were generated and fused by overlapping PCR. […] The p11013 fragment was obtained by PCR using as template a p110β clone (from unknown source that was sequence verified) using primers gwG130-p04 (5′-[…]-[…]-3′) (SEQ ID NO: 9) which contains linker sequences and the 5′ end of p110β and gwG130-p06 (5′-[…]-[…]-3′) (SEQ ID NO: 10) which contains sequences of the 3′ end of p110-β fused to a Histidine tag. […] This final product was recombined in a Gateway (Invitrogen) […] into the donor vector pDONR201 (Invitrogen) to generate the ORF253 entry clone. This clone was verified by sequencing and used in a Gateway LR reaction (Invitrogen) to transfer the insert into the Gateway adapted pBlueBac4.5 (Invitrogen) vector for generation of the baculovirus expression vector LR280.
as §4
as §5, with “accordingly.” for “accordingly. An equal volume of Dialysis Buffer (20 mM Tris-Cl, pH 7.5, 500 mM NaCl, 50% glycerol, 5 mM NaF, 5 mM DTT) was added to the pool and than dialyzed against Dialysis Buffer two changes (one change overnight). Protein was stored at −20° C.”

The target of data set [6] is T4, PI3Kδ (Homo sapiens, UniProt O00329).
T4 construct: p85iSH2(461-568)-GGGGGG-p110δ(2-1044)-His; made in house; host or cells: baculovirus, Tn5 insect cells
The data set is described as follows: PI3K KinaseGlo assay, PI3Kδ. Format: biochemical. The following applies: 10 nM enzyme, 1 μM ATP, 30 mins, room temperature, read-out: PI3Kd/IC50.

The target of data set [7] is T5, PI3Kalpha E545K (Homo sapiens, UniProt P42336, E545K).
T5 construct: made in house; host or cells: baculovirus (vector LR561)
The data set is described as follows: Luciferase luminescence assay (KinaseGlo), PI3Kalpha E545K. The following applies: construct BV1147; 1 μM ATP, 15 min preincubation, 1 h, room temperature; read-out: PI3Kalpha E545K IC50s. It counts as biochemical. The source says:
(§6) Luminescence is a well established readout to determine ATP concentrations and can thus be used to follow the activity of many kinases regardless of their substrate. The KinaseGlo Luminescent Kinase Assay (Promega, Madison/WI, USA) is a homogeneous HTS method of measuring kinase activity by quantifying the amount of ATP remaining in solution following a kinase reaction.

The target in data set [8] is T6, PI3Kalpha H1047R (Homo sapiens, UniProt P42336, H1047R).
T6 construct: made in house; host or cells: baculovirus (vector LR480)
The data set is described as follows: Luciferase luminescence assay (KinaseGlo), PI3Kalpha H1047R. Format: biochemical. The following applies: construct BV1097; 1 μM ATP, 15 min preincubation, 1 h, room temperature; read-out: PI3Kalpha H1047R IC50s.
From the text: as §6

The target of data set [9] is T7, PI3Kalpha wild type (Homo sapiens, UniProt P42336).
T7 construct: p110α(21-1068)-His; made in house
The data set is described as follows: Luciferase luminescence assay (KinaseGlo), PI3Kalpha wild type. Format: biochemical. Conditions: construct BV1075; 1 μM ATP, 15 min preincubation, 1 h, room temperature; read-out: PI3Kalpha wild type IC50s.
From the text: as §6

T6 sequence (P42336 with tags, fused parts or gaps H1047R): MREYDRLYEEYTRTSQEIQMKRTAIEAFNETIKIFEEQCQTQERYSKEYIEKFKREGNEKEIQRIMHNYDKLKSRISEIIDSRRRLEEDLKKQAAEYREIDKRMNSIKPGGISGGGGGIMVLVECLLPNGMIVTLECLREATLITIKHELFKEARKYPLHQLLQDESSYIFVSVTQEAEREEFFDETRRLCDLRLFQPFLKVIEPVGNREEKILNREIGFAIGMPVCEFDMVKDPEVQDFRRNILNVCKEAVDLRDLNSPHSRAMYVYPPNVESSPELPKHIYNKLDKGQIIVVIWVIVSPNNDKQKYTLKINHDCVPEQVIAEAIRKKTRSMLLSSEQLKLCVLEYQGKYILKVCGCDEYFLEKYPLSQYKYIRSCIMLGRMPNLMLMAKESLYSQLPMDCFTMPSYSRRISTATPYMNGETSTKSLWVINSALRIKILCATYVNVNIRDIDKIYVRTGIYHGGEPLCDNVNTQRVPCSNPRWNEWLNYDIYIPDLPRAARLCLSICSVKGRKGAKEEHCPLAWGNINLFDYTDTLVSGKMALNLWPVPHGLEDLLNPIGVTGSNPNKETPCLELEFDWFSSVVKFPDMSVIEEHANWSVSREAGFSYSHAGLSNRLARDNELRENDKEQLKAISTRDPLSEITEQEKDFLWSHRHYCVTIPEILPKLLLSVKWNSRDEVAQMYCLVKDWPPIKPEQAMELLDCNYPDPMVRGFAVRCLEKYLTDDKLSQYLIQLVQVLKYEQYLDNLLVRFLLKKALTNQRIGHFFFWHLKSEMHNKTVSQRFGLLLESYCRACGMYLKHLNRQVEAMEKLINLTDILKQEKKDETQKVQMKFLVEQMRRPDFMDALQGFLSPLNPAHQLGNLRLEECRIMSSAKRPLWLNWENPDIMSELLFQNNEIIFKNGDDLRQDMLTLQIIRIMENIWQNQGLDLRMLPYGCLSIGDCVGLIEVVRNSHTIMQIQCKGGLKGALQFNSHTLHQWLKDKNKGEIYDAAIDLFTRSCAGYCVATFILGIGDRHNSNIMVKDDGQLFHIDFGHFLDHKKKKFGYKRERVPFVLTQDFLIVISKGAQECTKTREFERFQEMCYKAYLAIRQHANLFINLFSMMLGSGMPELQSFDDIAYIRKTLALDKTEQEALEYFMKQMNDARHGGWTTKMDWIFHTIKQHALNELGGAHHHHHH
T4 sequence (O00329 with tags, fused parts or gaps): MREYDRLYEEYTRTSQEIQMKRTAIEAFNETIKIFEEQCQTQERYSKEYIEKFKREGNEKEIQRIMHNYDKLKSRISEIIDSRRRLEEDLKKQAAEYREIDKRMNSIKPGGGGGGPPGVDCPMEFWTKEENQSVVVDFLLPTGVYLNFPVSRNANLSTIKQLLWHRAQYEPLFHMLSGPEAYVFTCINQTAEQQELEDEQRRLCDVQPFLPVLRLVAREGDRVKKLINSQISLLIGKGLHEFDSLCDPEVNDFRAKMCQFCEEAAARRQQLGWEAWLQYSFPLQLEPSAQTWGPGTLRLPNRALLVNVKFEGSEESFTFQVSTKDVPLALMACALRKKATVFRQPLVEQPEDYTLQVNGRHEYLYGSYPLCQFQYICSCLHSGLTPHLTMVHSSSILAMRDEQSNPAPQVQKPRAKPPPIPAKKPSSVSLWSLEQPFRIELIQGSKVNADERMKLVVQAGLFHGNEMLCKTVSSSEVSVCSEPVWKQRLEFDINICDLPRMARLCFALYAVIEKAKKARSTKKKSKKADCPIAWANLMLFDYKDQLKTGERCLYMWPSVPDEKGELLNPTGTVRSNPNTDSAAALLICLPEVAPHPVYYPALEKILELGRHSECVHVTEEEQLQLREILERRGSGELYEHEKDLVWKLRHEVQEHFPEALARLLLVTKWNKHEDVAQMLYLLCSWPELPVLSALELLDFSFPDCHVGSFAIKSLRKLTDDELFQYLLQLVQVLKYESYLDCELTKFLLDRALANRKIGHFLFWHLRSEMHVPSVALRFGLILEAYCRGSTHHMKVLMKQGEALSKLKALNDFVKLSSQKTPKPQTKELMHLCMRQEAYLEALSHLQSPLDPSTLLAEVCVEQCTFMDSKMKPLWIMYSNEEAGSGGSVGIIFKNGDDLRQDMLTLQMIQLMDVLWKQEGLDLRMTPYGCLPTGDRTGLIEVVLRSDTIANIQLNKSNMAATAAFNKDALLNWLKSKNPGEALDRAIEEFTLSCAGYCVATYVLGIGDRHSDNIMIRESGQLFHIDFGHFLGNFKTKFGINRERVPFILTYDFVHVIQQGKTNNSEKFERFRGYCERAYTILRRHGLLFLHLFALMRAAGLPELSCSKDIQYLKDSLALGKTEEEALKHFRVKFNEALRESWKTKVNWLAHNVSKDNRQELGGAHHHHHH
T2 sequence (P48736 with tags, fused parts or gaps Q459R): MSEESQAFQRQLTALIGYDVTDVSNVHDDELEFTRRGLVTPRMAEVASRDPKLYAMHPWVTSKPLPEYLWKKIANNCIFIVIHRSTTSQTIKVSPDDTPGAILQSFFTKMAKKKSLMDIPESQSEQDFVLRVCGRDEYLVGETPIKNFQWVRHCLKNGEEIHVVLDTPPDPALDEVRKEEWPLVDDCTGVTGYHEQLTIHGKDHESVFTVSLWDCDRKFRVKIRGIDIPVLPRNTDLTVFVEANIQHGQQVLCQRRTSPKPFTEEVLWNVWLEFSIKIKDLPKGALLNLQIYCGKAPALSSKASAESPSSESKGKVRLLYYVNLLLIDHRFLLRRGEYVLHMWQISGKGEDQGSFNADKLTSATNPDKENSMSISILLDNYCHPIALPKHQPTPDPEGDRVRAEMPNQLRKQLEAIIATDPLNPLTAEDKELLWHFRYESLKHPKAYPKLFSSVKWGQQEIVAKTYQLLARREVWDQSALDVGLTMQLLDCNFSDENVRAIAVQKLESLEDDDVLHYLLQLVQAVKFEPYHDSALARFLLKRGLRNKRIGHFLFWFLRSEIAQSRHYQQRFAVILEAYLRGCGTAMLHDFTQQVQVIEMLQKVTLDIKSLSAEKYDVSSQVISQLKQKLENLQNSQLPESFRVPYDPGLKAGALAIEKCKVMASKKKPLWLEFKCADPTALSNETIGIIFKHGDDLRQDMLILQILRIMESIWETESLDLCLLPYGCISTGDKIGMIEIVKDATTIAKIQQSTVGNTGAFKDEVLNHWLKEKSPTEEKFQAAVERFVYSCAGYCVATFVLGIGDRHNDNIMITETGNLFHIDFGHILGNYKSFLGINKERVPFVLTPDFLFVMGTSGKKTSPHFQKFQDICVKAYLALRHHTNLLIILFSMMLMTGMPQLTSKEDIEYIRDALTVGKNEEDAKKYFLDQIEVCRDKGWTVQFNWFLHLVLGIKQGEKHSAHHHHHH
T7 sequence (P42336 with tags, fused parts or gaps): as the sequence (P42336 with tags, fused parts or gaps H1047R) above, with I112G, S113G, I119G, M120G, V121G, R1148H counted along it
T1 sequence (P42336 with tags, fused parts or gaps): as the sequence (P42336 with tags, fused parts or gaps H1047R) above, with I112G, S113G, I119G, M120G, V121G, R1148H counted along it
T3 sequence (P42338 with tags, fused parts or gaps): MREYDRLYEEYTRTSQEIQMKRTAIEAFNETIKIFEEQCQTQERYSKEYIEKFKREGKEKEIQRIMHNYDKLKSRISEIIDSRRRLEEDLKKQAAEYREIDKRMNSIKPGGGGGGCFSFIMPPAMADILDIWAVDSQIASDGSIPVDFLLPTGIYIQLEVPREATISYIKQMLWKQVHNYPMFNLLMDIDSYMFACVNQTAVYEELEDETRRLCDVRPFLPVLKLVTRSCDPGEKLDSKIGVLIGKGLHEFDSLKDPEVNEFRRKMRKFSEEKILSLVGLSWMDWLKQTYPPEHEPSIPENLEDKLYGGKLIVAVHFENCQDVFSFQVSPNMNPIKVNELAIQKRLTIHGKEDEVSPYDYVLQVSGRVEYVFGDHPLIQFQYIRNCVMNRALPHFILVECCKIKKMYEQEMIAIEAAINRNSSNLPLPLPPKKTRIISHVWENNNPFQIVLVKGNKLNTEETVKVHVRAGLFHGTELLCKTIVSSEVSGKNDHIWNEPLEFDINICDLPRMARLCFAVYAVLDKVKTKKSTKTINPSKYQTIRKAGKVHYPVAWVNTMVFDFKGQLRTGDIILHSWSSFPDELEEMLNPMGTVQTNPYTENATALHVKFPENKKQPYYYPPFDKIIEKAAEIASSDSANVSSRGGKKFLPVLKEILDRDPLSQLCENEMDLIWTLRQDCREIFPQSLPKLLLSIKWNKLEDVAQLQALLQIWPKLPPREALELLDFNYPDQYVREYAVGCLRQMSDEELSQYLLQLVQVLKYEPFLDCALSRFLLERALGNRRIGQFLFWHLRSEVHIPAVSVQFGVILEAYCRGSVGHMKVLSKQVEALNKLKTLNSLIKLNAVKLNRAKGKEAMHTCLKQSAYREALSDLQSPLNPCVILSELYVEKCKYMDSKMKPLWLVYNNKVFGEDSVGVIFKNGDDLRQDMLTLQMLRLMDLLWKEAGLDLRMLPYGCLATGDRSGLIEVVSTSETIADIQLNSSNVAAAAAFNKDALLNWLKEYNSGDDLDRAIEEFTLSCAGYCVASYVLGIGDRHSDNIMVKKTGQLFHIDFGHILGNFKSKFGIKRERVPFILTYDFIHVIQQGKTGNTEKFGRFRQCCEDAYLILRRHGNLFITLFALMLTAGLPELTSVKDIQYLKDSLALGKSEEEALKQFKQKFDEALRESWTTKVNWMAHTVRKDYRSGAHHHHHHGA
T5 sequence (P42336 with tags, fused parts or gaps E545K): as the sequence (P42336 with tags, fused parts or gaps H1047R) above, with E646K, R1148H counted along it

For the compound `Cc1nc(NC(=O)N2CCC[C@H]2C(N)=O)sc1-c1ccnc(C(C)(C)C(F)(F)F)c1` [Example 15, (S)-Pyrrolidine-1,2-dicarboxylic acid 2-amide 1-({4-methyl-5-[2-(2,2,2-trifluoro-1,1-dimethyl-ethyl)-pyridin-4-yl]-thiazol-2-yl}-amide)], in [1], the microsomal CLint at 1 μM amounted to 33 µL/min/mg.
For the compound `Cc1nc(NC(=O)N2CCC[C@H]2C(N)=O)sc1-c1ccnc(C(C)(CF)CF)c1` [Example 55, (S)-Pyrrolidine-1,2-dicarboxylic acid 2-amide 1-({5-[2-(2-fluoro-1-fluoromethyl-1-methyl-ethyl)-pyridin-4-yl]-4-methyl-thiazol-2-yl}-amide)], the microsomal CLint at 1 μM in [2] was 29 µL/min/mg; in data set [1], 27 µL/min/mg.
In the case of `Cc1nc(NC(=O)N2CCC[C@H]2C(N)=O)sc1-c1ccnc(C2(C)CC2)c1` [Example 5, (S)-Pyrrolidine-1,2-dicarboxylic acid 2-amide 1-({4-methyl-5-[2-(1-methylcyclopropyl)-pyridin-4-yl]-thiazol-2-yl}-amide)], the IC50 in [3] amounted to 0.044 µM; in data set [4], 2.05 µM; in [5] it was 3.91 µM; in data set [6], 0.648 µM; in data set [7], 0.0067 µM; in data set [8], 0.0077 µM. Moreover, the IC50 in data set [9] worked out at 0.0082 µM.
`[2H]C([2H])([2H])C(c1nccc(-c2sc(NC(=O)N3CCC[C@H]3C(N)=O)nc2C)n1)(C([2H])([2H])[2H])C([2H])([2H])[2H]` [Example 61, (S)-Pyrrolidine-1,2-dicarboxylic acid 2-amide 1-{[5-(2-d9-tert-butyl-pyrimidin-4-yl)-4-methyl-thiazol-2-yl]-amide}]: the figures for the microsomal CLint at 1 μM in data set [2] and in data set [1] were 22 µL/min/mg and 19 µL/min/mg, respectively.
